Experimental data from US20240166652A1, “MODULATORS OF THE INTEGRATED STRESS PATHWAY” (Calico Life Sciences LLC, priority 2017, published 2024).

Tested on: ATF4 luciferase reporter in HEK293T cells
Assay: ATF4-Luc assay (ATF4 luciferase reporter, tunicamycin-treated HEK293T cells)
Format: cell-based, human
Settings: Homo sapiens, HEK-293T; HEK293T cells carrying the ATF4 luciferase reporter, 1 μg/mL tunicamycin, 7 hours
Experimental: In order to test exemplary compounds of the invention in a cellular context, a stable VWMD cell line was first constructed. The ATF4 reporter was prepared by fusing the human full-length ATF4 5′-UTR (NCBI Accession No. BC022088.2) in front of the firefly luciferase (FLuc) coding sequence lacking the initiator methionine as described in Sidrauski et al (eLife 2013). The construct was used to produce recombinant retroviruses using standard methods and the resulting viral supernatant was used to transduce HEK293T cells, which were then subsequently selected with puromycin to generate a stable cell line.
HEK293T cells carrying the ATF4 luciferase reporter were plated on polylysine coated 384-well plates (Greiner Bio-one) at 30,000 cells per well. Cells were treated the next day with 1 μg/mL tunicamycin and 200 nM of a compound of Formula (I) for 7 hours. Luminescence was measured using One Glo (Promega) as specified by the manufacturer. Cells were maintained in DMEM with L-glutamine supplemented with 10% heat-inactivated FBS (Gibco) and Antibiotic-Antimycotic solution (Gibco).
Table 2 below summarizes the EC50 data obtained using the ATF4-Luc assay for exemplary compounds of the invention.

Structure (SMILES)	EC50 [nM]
O=C(COc1ccc(Cl)c(F)c1)NC12CC(NC(=O)COc3ccccc3OCCO)(C1)C2 [Compound 805, 2-(4-chloro-3-fluorophenoxy)-N-(3-{2-[2-(2-hydroxyethoxy)phenoxy]acetamido}bicyclo[1.1.1]pentan-1-yl)acetamide]	500 to 2000
O=C(O)CN(CC(=O)NC12CC(NC(=O)COc3ccc(Cl)c(F)c3)(C1)C2)c1ccc(Cl)cc1 [Compound 684, {[2-({3-[2-(4-chloro-3-fluorophenoxy)acetamido]bicyclo[1.1.1]pentan-1-yl}amino)-2-oxoethyl](4-chlorophenyl)amino}acetic Acid]	> 2000
O=C(COc1ccc(Cl)c(O)c1)NC12CCC(NC(=O)COc3ccc(Cl)c(F)c3)(CC1)[C@@H](O)C2 [Compound 574, 2-(4-chloro-3-fluorophenoxy)-N-{(2S)-4-[2-(4-chloro-3-hydroxyphenoxy)acetamido]-2-hydroxybicyclo[2.2.2]octan-1-yl}acetamide]	< 10
COC(=O)c1ncc(OCC(=O)NC23CCC(NC(=O)COc4ccc(Cl)c(F)c4)(CC2)[C@@H](O)C3)cn1 [Compound 622, methyl 5-[2-({(3S)-4-[2-(4-chloro-3-fluorophenoxy)acetamido]-3-hydroxybicyclo[2.2.2]octan-1-yl}amino)-2-oxoethoxy]pyrimidine-2-carboxylate]	500 to 2000
O=C(COc1ccc(Cl)c(F)c1)NC12CC(NC(=O)COc3ccc(C(F)(F)F)nn3)(C1)C2 [Compound 256, 2-(4-chloro-3-fluorophenoxy)-N-[3-(2-{[6-(trifluoromethyl)pyridazin-3-yl]oxy}acetamido)bicyclo[1.1.1]pentan-1-yl]acetamide]	50 to 250
O=C(COc1ccc(C(F)(F)F)nc1)NC12CC(NC(=O)COc3ccc(C(F)(F)F)nc3)(C1)C2 [Compound 400, N,N′-(bicyclo[1.1.1]pentane-1,3-diyl)bis(2-{[6-(trifluoromethyl)pyridin-3-yl]oxy}acetamide)]	50 to 250
CCCN1C(=O)C2(NC(=O)COc3ccc(Cl)c(F)c3)CCC1(NC(=O)COc1ccc(Cl)c(F)c1)CC2 [Compound 677, N,N′-(3-oxo-2-propyl-2-azabicyclo[2.2.2]octane-1,4-diyl)bis[2-(4-chloro-3-fluorophenoxy)acetamide]]	500 to 2000
O=C(COc1ccc2c(c1)OC(F)(F)O2)NC12CCC(NC(=O)COc3ccc4c(c3)OC(F)(F)O4)(C1)C2 [Compound 391, N,N′-(bicyclo[2.1.1]hexane-1,4-diyl)bis{2-[(2,2-difluoro-2H-1,3-benzodioxol-5-yl)oxy]acetamide}]	250 to 500
O=C(COc1ccc(Cl)c(Cl)c1)NC12CC(NC(=O)NCc3cccc(F)c3)(C1)C2 [Compound 451, 2-(3,4-dichlorophenoxy)-N-[3-({[(3-fluorophenyl)methyl]carbamoyl}amino)bicyclo[1.1.1]pentan-1-yl]acetamide]	> 2000
O=C(COc1ccc(Cl)c(F)c1)NC12CCCC(NC(=O)OCc3ccccc3)(C1)C2 [Compound 181, benzyl {5-[2-(4-chloro-3-fluorophenoxy)acetamido]bicyclo[3.1.1]heptan-1-yl}carbamate]	> 2000
O=C(COCc1n[nH]c(=O)o1)NC12CC(NC(=O)COc3ccc(Cl)c(F)c3)(C1)C2 [Compound 218, 2-(4-chloro-3-fluorophenoxy)-N-(3-{2-[(5-oxo-4,5-dihydro-1,3,4-oxadiazol-2-yl)methoxy]acetamido}bicyclo[1.1.1]pentan-1-yl)acetamide]	500 to 2000
O=C(COc1ccc(OC(F)(F)F)cc1)NC12CCC(NC(=O)COc3ccc(OC(F)(F)F)cc3)(CC1)[C@@H](O)C2 [Compound 785, N,N′-[(2S)-2-hydroxybicyclo[2.2.2]octane-1,4-diyl]bis{2-[4-(trifluoromethoxy)phenoxy]acetamide}]	50 to 250
O=C(COc1ccc(F)c(F)c1)NC12CCC(NC(=O)COc3ccc(F)c(F)c3)(CC1)C(O)C2 (stereo not drawn) [Compound 363, N,N′-(2-hydroxybicyclo[2.2.2]octane-1,4-diyl)bis[2-(3,4-difluorophenoxy)acetamide]]	< 10
O=C(/C=C/c1ccc(OC(F)(F)F)cn1)NC12CC(NC(=O)COc3ccc(Cl)c(F)c3)(C1)C2 [Compound 376, (2E)-N-{3-[2-(4-chloro-3-fluorophenoxy)acetamido]bicyclo[1.1.1]pentan-1-yl}-3-[5-(trifluoromethoxy)pyridin-2-yl]prop-2-enamide]	250 to 500
O=C(COc1ccc(Cl)c(F)c1)NC12CCC(NC(=O)COc3ccc(Cl)c(F)c3)(CC1)C(NC1(CO)COC1)C2 (stereo not drawn) [Compound 701, N,N′-(2-{[3-(hydroxymethyl)oxetan-3-yl]amino}bicyclo[2.2.2]octane-1,4-diyl)bis[2-(4-chloro-3-fluorophenoxy)acetamide]]	10 to 50
CCOC(=O)/C=C1\CC2(NC(=O)COc3ccc(Cl)c(F)c3)CCC1(NC(=O)COc1ccc(Cl)c(F)c1)CC2 [Compound 672, ethyl (2E)-{1,4-bis[2-(4-chloro-3-fluorophenoxy)acetamido]bicyclo[2.2.2]octan-2-ylidene}acetate]	10 to 50
COc1cc(OCC(=O)NC23CC(NC(=O)COc4ccc(Cl)c(F)c4)(C2)C3)ccc1Cl [Compound 126, 2-(4-chloro-3-fluorophenoxy)-N-{3-[2-(4-chloro-3-methoxyphenoxy)acetamido]-bicyclo[1.1.1]pentan-1-yl}acetamide]	< 10
COc1ncc(OCC(=O)NC23CCC(NC(=O)COc4ccc(Cl)c(F)c4)(CC2)C(=O)C3)cn1 [Compound 655, 2-(4-chloro-3-fluorophenoxy)-N-(4-{2-[(2-methoxypyrimidin-5-yl)oxy]acetamido}-2-oxobicyclo[2.2.2]octan-1-yl)acetamide]	10 to 50
O=C(COc1ccc(Cl)c(F)c1)NC12CCCC(NC(=O)COc3ccc(Cl)c(F)c3)(C1)C2 [Compound 179, N,N′-(bicyclo[3.1.1]heptane-1,5-diyl)bis[2-(4-chloro-3-fluorophenoxy)acetamide]]	> 2000
Cc1cccc(COCC(=O)NC23CC(NC(=O)COc4ccc(Cl)c(F)c4)(C2)C3)n1 [Compound 128, 2-(4-chloro-3-fluorophenoxy)-N-(3-{2-[(6-methylpyridin-2-yl)methoxy]acetamido}bicyclo[1.1.1]pentan-1-yl)acetamide]	500 to 2000
O=C(COc1ccc(OC(F)(F)F)c(F)c1)NC12CCC(NC(=O)COc3ccc4c(c3)OC(F)(F)O4)(CC1)[C@@H](O)C2 [Compound 760, 2-[(2,2-difluoro-2H-1,3-benzodioxol-5-yl)oxy]-N-[(2S)-4-{2-[3-fluoro-4-(trifluoromethoxy)phenoxy]acetamido}-2-hydroxybicyclo[2.2.2]octan-1-yl]acetamide]	< 10
O=C(COc1ccc(Cl)c(CO)c1)NC12CCC(NC(=O)COc3ccc(Cl)c(CO)c3)(CC1)[C@@H](O)C2 [Compound 592, N,N′-[(2S)-2-hydroxybicyclo[2.2.2]octane-1,4-diyl]bis{2-[4-chloro-3-(hydroxymethyl)phenoxy]acetamide}]	500 to 2000
O=C(COc1ccc(Cl)c(F)c1)NC12CCC(NC(=O)COc3ccc4cn[nH]c4c3)(C1)C2 [Compound 187, 2-(4-chloro-3-fluorophenoxy)-N-(4-{2-[(1H-indazol-6-yl)oxy]acetamido}bicyclo[2.1.1]hexan-1-yl)acetamide]	50 to 250
O=C(/C=C/c1cccc(Cl)c1)NC12CC(NC(=O)COc3ccc(Cl)c(F)c3)(C1)C2 [Compound 350, (2E)-N-{3-[2-(4-chloro-3-fluorophenoxy)acetamido]bicyclo[1.1.1]pentan-1-yl}-3-(3-chlorophenyl)prop-2-enamide]	50 to 250
Cc1nc(F)ccc1OCC(=O)NC12CC(NC(=O)COc3ccc(Cl)c(F)c3)(C1)C2 [Compound 249, 2-(4-chloro-3-fluorophenoxy)-N-(3-{2-[(6-fluoro-2-methylpyridin-3-yl)oxy]acetamido}bicyclo[1.1.1]pentan-1-yl)acetamide]	250 to 500
CN1C(=O)C2(NC(=O)COc3ccc(Cl)c(F)c3)CCC1(NC(=O)COc1ccc(Cl)c(F)c1)CC2 [Compound 605, N,N′-(2-methyl-3-oxo-2-azabicyclo[2.2.2]octane-1,4-diyl)bis[2-(4-chloro-3-fluorophenoxy)acetamide]]	50 to 250
COC(=O)c1cc(OCC(=O)NC23CCC(NC(=O)COc4ccc(Cl)c(F)c4)(CC2)[C@@H](O)C3)ccc1Cl [Compound 597, methyl 2-chloro-5-[2-({(3S)-4-[2-(4-chloro-3-fluorophenoxy)acetamido]-3-hydroxybicyclo[2.2.2]octan-1-yl}amino)-2-oxoethoxy]benzoate]	10 to 50
O=C(COc1ccc(Cl)c(F)c1)NC12CCC(NC(=O)COc3ccc(Cl)c(F)c3)(CC1)C(O)(CO)C2 (stereo not drawn) [Compound 644, N,N′-[2-hydroxy-2-(hydroxymethyl)bicyclo[2.2.2]octane-1,4-diyl]bis[2-(4-chloro-3-fluorophenoxy)acetamide]]	< 10
O=C(COc1ccc(Cl)c(F)c1)NC12CCC(NC(=O)Cc3ccc(OC(F)(F)F)cc3)(CC1)C(O)C2 (stereo not drawn) [Compound 326, 2-(4-chloro-3-fluorophenoxy)-N-(3-hydroxy-4-{2-[4-(trifluoromethoxy)phenyl]acetamido}bicyclo[2.2.2]octan-1-yl)acetamide]	50 to 250
O=C(COc1ccc(Cl)c(F)c1)NC12CC(NC(=O)COc3ccn4nccc4n3)(C1)C2 [Compound 182, 2-(4-chloro-3-fluorophenoxy)-N-(3-{2-[(pyrazolo[1,5-a]pyrimidin-5-yl)oxy]acetamido}bicyclo[1.1.1]pentan-1-yl)acetamide]	> 2000
